{"source": "paper PMC9298182", "about": "“De novo design of type II topoisomerase inhibitors as potential antimicrobial agents targeting a novel binding region” (RSC Medicinal Chemistry, 2022)", "key": {"[1]": {"target": "T1, E. coli topoisomerase IV (Escherichia coli, UniProt P0AFI2+P20083)", "set-up": "method as in PMID 28507124", "settings": "read-out: E. coli topo IV IC50; cited from earlier work"}, "[2]": {"system": "E. coli", "set-up": "method as in PMID 28507124", "settings": "different E. coli strain, printed in column E. coli K12 MG1655; cited from earlier work"}, "[3]": {"system": "S. aureus", "settings": "different S. aureus strain, printed in column S. aureus NCIMB 50080; cited from earlier work"}, "[4]": {"target": "E. coli DNA gyrase (Escherichia coli, UniProt P0AES4+P0AES6)", "assay": "E. coli DNA gyrase supercoiling inhibition assay (gel-based)", "format": "biochemical", "settings": "for IC50: supercoiling assay, mean of 2 or 3 experiments, semi-quantitative"}, "[5]": {"target": "T1, E. coli topoisomerase IV", "assay": "biochemical", "format": "biochemical"}, "[6]": {"system": "E. coli K12 MG1655", "assay": "MIC, broth microdilution", "format": "cell-based", "settings": "Escherichia coli, MG1655, read-out: E. coli K12 MG1655 MIC"}, "[7]": {"system": "S. aureus NCIMB 50080", "assay": "MIC, broth microdilution", "format": "cell-based"}, "[8]": {"system": "E. coli K12 MG1655 S83L", "assay": "MIC, broth microdilution, fluoroquinolone mutant strain", "format": "cell-based", "settings": "Escherichia coli, MG1655, read-out: E. coli K12 MG1655 S83L MIC"}, "[9]": {"settings": "Staphylococcus aureus, NCIMB50080; read-out: S. aureus NCIMB 50080 MIC"}}, "note": "Like-named read-outs stand apart in the source and are kept apart here. Marks after values point to notes of the source that are not given here."}
{"compound": "Cl.NCC(NC(=O)c1cccc(-c2cccs2)c1)c1ccc(O)cc1", "note": "(stereo not drawn) [Compound 1]", "values": [{"measurement": "IC50", "setting": "[1]", "value": "> 540", "unit": "µM"}, {"measurement": "E. coli MIC", "setting": "[2]", "value": "8 ^a μg mL^−1"}, {"measurement": "S. aureus MIC", "setting": "[3]", "value": "8 ^a μg mL^−1"}]}
{"compound": "NC[C@H](NC(=O)c1cccc(-c2ccccc2)c1)c1ccccc1", "note": "[Compound 2]", "values": [{"measurement": "IC50", "setting": "[4]", "value": 60, "unit": "µM"}]}
{"compound": "COc1ccccc1-c1cccc(C(=O)N[C@@H](CN)c2ccccc2)c1", "note": "[Compound 3]", "values": [{"measurement": "IC50", "setting": "[4]", "value": 20, "unit": "µM"}]}
{"compound": "CCOc1cccc(-c2cccc(C(=O)N[C@@H](CN)c3ccccc3)c2)c1", "note": "[Compound 4]", "values": [{"measurement": "IC50", "setting": "[4]", "value": 20, "unit": "µM"}]}
{"compound": "Cl.NC[C@H](NC(=O)c1cccc(-c2ccccc2C(F)(F)F)c1)c1ccccc1", "note": "[Compound 5]", "values": [{"measurement": "IC50", "setting": "[4]", "value": 21, "unit": "µM"}, {"measurement": "IC50", "setting": "[5]", "value": "> 100", "unit": "µM"}, {"measurement": "MIC", "setting": "[6]", "value": 32, "unit": "µg/mL"}, {"measurement": "MIC", "setting": "[7]; [9]", "value": 16, "unit": "µg/mL"}, {"measurement": "MIC", "setting": "[8]", "value": 32, "unit": "µg/mL"}]}
{"compound": "CCOc1cccc(-c2cccc(C(=O)N[C@@H](CN)c3ccccc3)c2)c1F.Cl", "note": "[Compound 6, N-[(1R)-2-amino-1-phenylethyl]-3'-ethoxy-2'-fluoro-[1,1'-biphenyl]-3-carboxamide hydrochloride]", "values": [{"measurement": "fold increase in binding affinity against gyrase vs. unsubstituted 2", "setting": "[4]; relative to compound 2", "value": 5, "unit": "fold"}, {"measurement": "IC50", "setting": "[4]", "value": 12, "unit": "µM"}, {"measurement": "IC50", "setting": "[5]", "value": "> 100", "unit": "µM"}, {"measurement": "MIC", "setting": "[6]", "value": 64, "unit": "µg/mL"}, {"measurement": "MIC", "setting": "[7]; [9]", "value": 32, "unit": "µg/mL"}, {"measurement": "MIC", "setting": "[8]", "value": 64, "unit": "µg/mL"}]}
{"compound": "CCOc1cc(-c2cccc(C(=O)N[C@@H](CN)c3ccccc3)c2)ccc1F.Cl", "note": "[Compound 7]", "values": [{"measurement": "IC50", "setting": "[4]", "value": 17, "unit": "µM"}, {"measurement": "IC50", "setting": "[5]", "value": 64, "unit": "µM"}, {"measurement": "fold more potent against gyrase than topo IV", "setting": "[5]; E. coli gyrase vs. E. coli topo IV", "value": "~4", "unit": "fold"}, {"measurement": "MIC", "setting": "[6]", "value": 32, "unit": "µg/mL"}, {"measurement": "MIC", "setting": "[7]; [9]", "value": 16, "unit": "µg/mL"}, {"measurement": "MIC", "setting": "[8]", "value": 32, "unit": "µg/mL"}, {"measurement": "melting point", "value": "219 to 221", "unit": "°C"}]}
{"compound": "NC[C@H](NC(=O)c1cccc(-c2cccc(O)c2)c1)c1ccccc1", "note": "[Compound 8]", "values": [{"measurement": "IC50", "setting": "[4]", "value": 46, "unit": "µM"}]}
{"compound": "Cl.NC[C@H](NC(=O)c1cccc(-c2ccccc2Cl)c1)c1ccccc1", "note": "[Compound 9]", "values": [{"measurement": "IC50", "setting": "[4]", "value": 35, "unit": "µM"}, {"measurement": "melting point", "value": "160.5 to 163", "unit": "°C"}]}
{"compound": "NC[C@H](NC(=O)c1cccc(-c2cccc(Cl)c2)c1)c1ccccc1", "note": "[Compound 10]", "values": [{"measurement": "IC50", "setting": "[4]", "value": 39, "unit": "µM"}]}
{"compound": "Cl.NC[C@H](NC(=O)c1cccc(-c2cccc([N+](=O)[O-])c2)c1)c1ccccc1", "note": "[Compound 11]", "values": [{"measurement": "IC50", "setting": "[4]", "value": 73, "unit": "µM"}, {"measurement": "IC50", "setting": "[5]", "value": 94, "unit": "µM"}, {"measurement": "MIC", "setting": "[6]", "value": "> 128", "unit": "µg/mL"}, {"measurement": "MIC", "setting": "[7]; Staphylococcus aureus, NCIMB50080, read-out: S. aureus NCIMB 50080 MIC", "value": "> 128", "unit": "µg/mL"}, {"measurement": "MIC", "setting": "[8]", "value": "> 128", "unit": "µg/mL"}]}
{"compound": "CC(=O)c1cccc(-c2cccc(C(=O)N[C@@H](CN)c3ccccc3)c2)c1.Cl", "note": "[Compound 12]", "values": [{"measurement": "IC50", "setting": "[4]", "value": 42, "unit": "µM"}, {"measurement": "melting point", "value": "~ 238 °C (dec.)"}]}
{"compound": "COC(=O)c1cccc(-c2cccc(C(=O)N[C@@H](CN)c3ccccc3)c2)c1.Cl", "note": "[Compound 13]", "values": [{"measurement": "IC50", "setting": "[4]", "value": 24, "unit": "µM"}, {"measurement": "melting point", "value": "212 to 215", "unit": "°C"}]}
{"compound": "COC(=O)c1ccccc1-c1cccc(C(=O)N[C@@H](CN)c2ccccc2)c1.Cl", "note": "[Compound 14]", "values": [{"measurement": "IC50", "setting": "[4]", "value": 41, "unit": "µM"}, {"measurement": "melting point", "value": "145 to 147", "unit": "°C"}]}
{"compound": "Cl.NC[C@H](NC(=O)c1cccc(Br)c1)c1ccccc1", "note": "[Compound 15]", "values": [{"measurement": "fold drop in gyrase activity compared to 2", "setting": "[4]; relative to compound 2", "value": "at least 3 fold"}, {"measurement": "IC50", "setting": "[4]", "value": "> 200", "unit": "µM"}]}
{"compound": "Cc1ccccc1C(=O)N[C@@H](CN)c1ccccc1", "note": "[Compound 21]", "values": [{"measurement": "IC50", "setting": "[4]", "value": "> 100", "unit": "µM"}]}
{"compound": "Cc1cccc(C(=O)N[C@@H](CN)c2ccccc2)c1", "note": "[Compound 22]", "values": [{"measurement": "IC50", "setting": "[4]", "value": "> 100", "unit": "µM"}]}
{"compound": "Cc1ccc(C(=O)N[C@@H](CN)c2ccccc2)cc1.Cl", "note": "[Compound 23]", "values": [{"measurement": "gyrase inhibition judged visually from gel", "setting": "[4]; at 100 µM, Fig. S2", "value": "some inhibition"}, {"measurement": "IC50", "setting": "[4]", "value": "> 100", "unit": "µM"}]}
{"compound": "COc1ccccc1-c1cc(C(=O)N[C@@H](CN)c2ccccc2)ccc1C", "note": "[Compound 24]", "values": [{"measurement": "IC50", "setting": "[4]", "value": 153, "unit": "µM"}]}
{"compound": "CCOc1cccc(-c2cc(C(=O)N[C@@H](CN)c3ccccc3)ccc2C)c1", "note": "[Compound 25]", "values": [{"measurement": "IC50", "setting": "[4]", "value": 63, "unit": "µM"}]}
{"compound": "CCOc1cc(C)cc(-c2cc(C(=O)N[C@@H](CN)c3ccccc3)ccc2C)c1", "note": "[Compound 26]", "values": [{"measurement": "IC50", "setting": "[4]", "value": 56, "unit": "µM"}]}
{"compound": "NC[C@H](NC(=O)c1cncc(-c2ccccc2Cl)c1)c1ccccc1", "note": "[Compound 27]", "values": [{"measurement": "IC50", "setting": "[4]", "value": 35, "unit": "µM"}]}
{"compound": "Cl.NC[C@@H](NC(=O)c1cccc(-c2ccccc2)c1)c1ccccc1", "note": "[Compound 28]", "values": [{"measurement": "IC50", "setting": "[4]", "value": 76, "unit": "µM"}, {"measurement": "melting point", "value": "205 to 207", "unit": "°C"}]}
{"compound": "COc1ccccc1-c1cccc(C(=O)N[C@H](CN)c2ccccc2)c1", "note": "[Compound 29]", "values": [{"measurement": "IC50", "setting": "[4]", "value": 36, "unit": "µM"}]}
{"compound": "CCOc1cccc(-c2cccc(C(=O)N[C@H](CN)c3ccccc3)c2)c1.Cl", "note": "[Compound 30]", "values": [{"measurement": "fold drop in gyrase activity of (S)-enantiomer vs. (R)-enantiomer", "setting": "[4]; 30 vs. 4", "value": 9, "unit": "fold"}, {"measurement": "IC50", "setting": "[4]", "value": 180, "unit": "µM"}]}
{"compound": "COc1ccccc1-c1cccc(C(=O)NC(CN)c2cccc(O)c2)c1.Cl", "note": "(stereo not drawn) [Compound 31]", "values": [{"measurement": "IC50", "setting": "[4]", "value": 41, "unit": "µM"}, {"measurement": "IC50", "setting": "[5]", "value": "> 100", "unit": "µM"}, {"measurement": "MIC", "setting": "[6]", "value": "> 128", "unit": "µg/mL"}, {"measurement": "MIC", "setting": "[7]; [9]", "value": 128, "unit": "µg/mL"}, {"measurement": "MIC", "setting": "[8]", "value": "> 128", "unit": "µg/mL"}]}
{"compound": "COc1ccccc1-c1cccc(C(=O)NC(CN)c2ccc(O)cc2)c1", "note": "(stereo not drawn) [Compound 32]", "values": [{"measurement": "IC50", "setting": "[4]", "value": 45, "unit": "µM"}]}
{"compound": "CCOc1cccc(-c2cccc(C(=O)NC(CN)c3cccc(O)c3)c2)c1", "note": "(stereo not drawn) [Compound 33]", "values": [{"measurement": "IC50", "setting": "[4]", "value": 41, "unit": "µM"}]}
{"compound": "CCOc1cccc(-c2cccc(C(=O)NC(CN)c3cccc(O)c3)c2)c1F", "note": "(stereo not drawn) [Compound 34]", "values": [{"measurement": "IC50", "setting": "[4]", "value": 62, "unit": "µM"}]}
{"compound": "CCOc1cccc(-c2cccc(C(=O)NC(CN)c3ccc(O)cc3)c2)c1F", "note": "(stereo not drawn) [Compound 35]", "values": [{"measurement": "IC50", "setting": "[4]", "value": "> 200", "unit": "µM"}]}
